Measurements taken from patent publication US11840531B2, “CDK8/19 inhibitors” (JOINT STOCK COMPANY “BIOCAD”, priority 2018, dated 2023).

Columns and labels:
KG-1 cells = experiment: Antiproliferative activity, KG-1 cells (AlamarBlue); type: cell-based; conditions: Homo sapiens, KG-1, 120 h, 120 h incubation
Experimental: (§1) Antiproliferative activity of CDK8 inhibitors according to the present invention was measured in a cell-based test on continuous cell cultures MV4-11 (biphenotypic myelomonocytic leukemia, ATCC® CRL-9591™), KG-1 (acute myeloid leukemia, ATCC® CCL-246™) using a vital stain AlamarBlue (ThermoFisher, #DAL1100). The cells were grown in RPMI-1640 (PanEco, #C330p) medium with addition of 10% FBS (Gibco, #16140-071); washed and resuspended in culture medium with 10% FBS (Gibco, #16140-071) in 96-well culture plates (Corning, #3599) with ≈10×10^3 cells in […] of medium per well. The compounds in question were dissolved in DMSO and diluted with a medium with 10% FBS (Gibco, #16140-071) to a final concentration ranging from 0 to 100 μM. […] of diluted compounds were then added to each well (final DMSO concentration was less than 1%) and incubated under 5% CO2 atmosphere at 37° C. for 120 h. After incubating, 15 μL/well of AlamarBlue (ThermoFisher, #DAL1100) reagent was added, contents of plates were mixed in an orbital shaker (Biosan, Latvia) and further incubated for 3-5 h at 37° C. under 5% CO2 atmosphere. Number of living cells was estimated using a microplate spectrophotometer (Tecan Infinite M200Pro, Switzerland) measuring fluorescent signal at the excitation wavelength (λEx) of 540 nm and emission wavelength (λEm) of 590 nm.
(§2) IC50 values were calculated using Magellan 7.2 software (Tecan, Switzerland) approximating experimental points by four-parameter logistic model with the optimization by Levenberg-Marquardt (Table 6).

[1] = Enzyme stability in human liver microsomes (Phase I); type: in vitro ADME; conditions: pH 7.4; 0.5 mg/mL pooled human liver microsomes, 10 μM compound, 37° C.
Experimental: Measuring of enzyme stability of the present compounds enabled estimation of their stability towards the action of Phase I biotransformation enzymes.
The rate of enzymatic decomposition of a compound was detected by incubating the reaction mixture in a dry block heater at 37° C.; the reaction mixture contained 0.5 mg/mL of pooled human liver microsomes (XenoTech, USA, cat #H6010), 10 μM of a compound, 2 mM β-nicotinamide adenine dinucleotide (Carbosynth, UK, cat #NN10871) and 4 mM of magnesium chloride in 0.1M sodium phosphate buffer (pH=7.4). The reaction was quenched with acetonitrile (100 μL of acetonitrile/100 μL of the reaction mixture). After quenching, the samples were centrifuged at 10000 rpm for 10 minutes. Supernatant fluid was tested by chromatographic technique using Agilent1200 (Agilent, USA). Chromatographic analysis was performed in a gradient elution regime with a flow rate of 1 mL/min. A graph of the logarithm of substance's peak area as a function of time was made. The dependent factor of the line corresponded to the elimination rate constant K based on which the drug's half-lif½e T and degradation rate CLint were calculated:
Based on the data obtained, candidates' enzyme stability in human liver microsomes was determined.

[2] = Stability of the compounds in human blood plasma; type: in vitro ADME; conditions: pooled human blood plasma, 10 μM, 4 hours at 37° C.
Experimental: To assess the blood plasma stability of the compounds, we used pooled human blood plasma taken from ten healthy donors. The initial candidate solution (10 mM in DMSO) was diluted with pooled blood plasma to a concentration of 10 μm (test solution). The test solution was incubated in a dry block thermostat for 4 hours at 37° C. HPLC with Agilent 1200 liquid chromatography system (Agilent, USA) was employed to determine peak areas of the compounds in test samples, said peak areas corresponding to the initial test time (prior to incubation) and the final test time (after incubation in a dry block thermostat for 4 hours at 37° C.), proteins were preliminarily precipitated with acetonitrile. Chromatographic analysis was performed in a gradient elution regime with a flow rate of 1 mL/min Substance amount in % in a sample after thermostatting was determined.
The stability of the compounds was estimated. The compounds described herein show at least 90% chemical stability, i.e. they are chemically stable in human blood plasma (Table 2).

MV4-11 cells = experiment: Antiproliferative activity, MV4-11 cells (AlamarBlue); type: cell-based; conditions: Homo sapiens, 120 h incubation, read-out: MV-4-11 IC50
Experimental: as §1, §2

[3] = Enzyme stability in human liver S9 fractions (Phase II); type: in vitro ADME; conditions: pH 7.4; 0.5 mg/mL pooled human liver S9 fractions, 10 μM compound, 37° C.; read-out: Enzyme stability Liver S9 fraction CLint
Experimental: Measuring of enzyme stability of the present compounds enabled estimation of their stability towards the action of Phase II biotransformation enzymes.
Enzyme degradation rate was measured by incubating the reaction mixture in a dry block thermostat at 37° C., said reaction mixture comprising 0.5 mg/mL of pooled human liver S9 fractions (XenoTech, USA, cat #H0610), 10 μM compound, 2 mM β-nicotinamide adenine dinucleotide (Carbosynth, UK, cat #NN10871) and 4 mM magnesium chloride in 0, 1 M sodium-phosphate buffer, pH=7, 4. The reaction was quenched with acetonitrile (100 μL of acetonitrile/100 μL of the reaction mixture). After quenching, the samples were centrifuged at 10000 rpm for 10 minutes. Supernatant fluid was tested by chromatographic technique using Agilent1200 (Agilent, USA). Chromatographic analysis was performed in a gradient elution regime with a flow rate of 1 mL/min A graph of the logarithm of substance's peak area as a function of time was made. The dependent factor of the line corresponded to the elimination rate constant K based on which the drug's half-life T½ and degradation rate CLint were calculated:
Based on the data obtained, candidates' enzyme stability in human liver S9 fractions was determined.

CDK8/Cyclin C = CDK8/Cyclin C (Homo sapiens (Human), UniProt P49336); experiment: LanthaScreen binding to recombinant CDK8/Cyclin C; conditions: TR-FRET, Tracer 236 10 nM, CDK8/Cyclin C 5 nM
Chain of CDK8/Cyclin C (P49336 whole entry): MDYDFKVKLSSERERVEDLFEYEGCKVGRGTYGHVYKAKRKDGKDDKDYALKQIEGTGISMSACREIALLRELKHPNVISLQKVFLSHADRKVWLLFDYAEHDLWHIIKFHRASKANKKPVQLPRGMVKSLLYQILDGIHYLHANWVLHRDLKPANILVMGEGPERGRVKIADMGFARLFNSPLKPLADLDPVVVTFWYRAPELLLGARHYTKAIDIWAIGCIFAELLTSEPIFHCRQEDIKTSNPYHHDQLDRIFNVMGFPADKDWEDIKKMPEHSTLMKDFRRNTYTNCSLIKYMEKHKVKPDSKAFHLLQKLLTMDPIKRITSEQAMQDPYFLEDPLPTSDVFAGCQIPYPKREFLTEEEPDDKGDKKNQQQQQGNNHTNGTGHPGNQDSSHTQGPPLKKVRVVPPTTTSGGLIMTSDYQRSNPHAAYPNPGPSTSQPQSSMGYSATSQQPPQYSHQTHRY
Chain of CDK8/Cyclin C (P24863 whole entry partner): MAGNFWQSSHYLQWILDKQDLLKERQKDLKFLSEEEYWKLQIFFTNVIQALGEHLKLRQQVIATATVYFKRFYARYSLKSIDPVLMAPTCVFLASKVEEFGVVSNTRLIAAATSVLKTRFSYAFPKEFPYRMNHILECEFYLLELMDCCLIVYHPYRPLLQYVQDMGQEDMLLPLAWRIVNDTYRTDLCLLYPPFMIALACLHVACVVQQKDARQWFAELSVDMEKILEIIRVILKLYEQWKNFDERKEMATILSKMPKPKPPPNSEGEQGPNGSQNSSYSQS
Experimental: Capability of compounds of the present invention to bind to CDK8 protein was detected using LanthaScreen (ThermoFisher) assay. We detected FRET signal proportional to the amount of CDK8-bound fluorescently-labeled ligand (Tracer 236) that competes with inhibitor for ATP binding site. We carried out the measurements in a 15 μl reaction volume using a 384-well plate (Corning, #CLS4513). Enzyme CDK8/Cyclin C (ThermoFisher, #PR7261B) was mixed with antibodies Anti-His-tag-Biotin (ThermoFisher, #PV6090), Streptavidin-Eu (ThermoFisher, #PV6025), the resulting mixture was added to plate wells (5 MKπ/well). Final concentrations of substances were as follows: CDK8/Cyclin C—5 nM, Streptavidin-Eu—3 nM, Anti-His-tag-Biotin—3 nM. Staurosporine (S4400, Sigma) was used as a reference inhibitor, and 0.1% solution of dimethyl sulphoxide (DMSO) in reaction buffer was used as a blank, the reaction buffer comprised 250 mM HEPES (pH 7.5), 50 mM MgCl2, 5 mM EGTA, and 0.05% Brij-35.
The inhibitors and controls in question were added to corresponding wells (5 μl/well). The plate was incubated at room temperature for 20 minutes. After incubating, 5 μl/well of tracer solution Alexa Fluor-647 (Kinase Tracer 236, ThermoFisher, #PV5592)) was added to the wells. Final concentration of tracer was 10 nM. Reaction buffer, instead of tracer solution, was used as a negative control. The plate was incubated for 40 minutes at 25° C., TR-FRET signal was then measured according to the manufacturer's guidelines on SPARK20 plate reader (Tecan, Switzerland), and the value was converted to the amount of kinase-bound tracer. IC50 values were calculated using SparkControl Magellan 1.2 software (Tecan, Switzerland) approximating experimental points by four-parameter logistic model with the optimization by Levenberg-Marquardt (Table 5).

[4] = General cytotoxicity on HepG2 cells; type: cell-based; conditions: human, 72 h incubation
Experimental: The CC50 values were determined in the test for General cytotoxicity On HepG2 cells (hepatocellular carcinoma, ATCC® HB-8065™). Cells per well were seeded in 96-well plates (Corning, #3599) at a concentration ≈20×10^3 cells in 100 μL of medium and incubated for 72 h with added compounds within the range of concentrations of 200 to 0.78 μM. Cell viability was assessed using the above method.

Compound	IC50 (KG-1 cells)	microsomal CLint at 10 μM [1]	Chemical stability in human blood plasma 4 h, % [2]	IC50 (MV4-11 cells)	microsomal CLint at 10 μM [3]	IC50 (CDK8/Cyclin C)	CC50 at 72 h [4]
CN1CCN(C(=O)Cn2cc(-c3ccc(-c4cnc(N)c5ncc(C(=O)N6CCC6)cc45)cc3)cn2)CC1 [Compound 3.53, 2-(4-(4-(8-amino-3-(azetidine-1-carbonyl)-1,7-naphthyridine-5-yl)phenyl)-1H-pyrazole-1-yl)-1-(4-methylpiperazine-1-yl)ethan-1-one]	2.4 nM	7.8 µL/min/mg	100.0%	1.3 nM	7.1 µL/min/mg	1.01 nM	~90 µM
CN1CCN(C(=O)c2cnc3c(N)ncc(-c4ccc(-c5cnn(CC(=O)N(C)C)c5)cc4)c3c2)CC1 [Compound 3.49, 2-(4-(4-(8-amino-3-(4-methylpiperazine-1-carbonyl)-1,7-naphthyridine-5-yl)phenyl) -1H-pyrazole-1-yl)-N,N-dimethylacetamide]	12.9 nM	7 µL/min/mg	100.0%	2.8 nM	1.4 µL/min/mg	1.85 nM	> 100 µM
CN1CCN(C(=O)Cn2cc(-c3ccc(-c4cnc(N)c5ncc(C(=O)NC6CC6)cc45)cc3)cn2)CC1 [Compound 3.47, 8-amino-N-cyclopropyl-5-(4-(1-(2-(4-methylpiperazin-1-yl)-2-oxoethyl)-1H-pyrazole-4-yl)phenyl)-1,7-naphthyridine-3-carboxamide]	3.3 nM	5.6 µL/min/mg	96.5%	1.1 nM	1.5 µL/min/mg	1.1 nM	> 100 µM
CN(C)C(=O)Cn1cc(-c2ccc(-c3cnc(N)c4ncc(C(=O)NC5CC5)cc34)cc2)cn1 [Compound 3.46, 8-amino-N-cyclopropyl-5-(4-(1-(2-(dimethylamino)-2-oxoethyl)-1H-pyrazole-4-yl)phenyl)-1,7-naphthyridine-3-carboxamide]	1.1 nM	2.6 µL/min/mg	96.5%	0.7 nM	0.5 µL/min/mg	1.11 nM	> 100 µM
